From patent US12129487B2, “Method to obtain lymphoid progenitors” (INSERM (Institute National de la Santé et de la Recherche …, priority 2017, dated 2024)

Columns and labels:
MPPs = assay: Impact of CXCL12 concentrations on lymphoid commitment of purified MPPs in vitro; assay type: cell-based, mouse; settings: WT MPPs, CXCL12 1 to 1,000 ng/ml at start, day 4 (FIG. 3)
Protocol: Purified MPPs were seeded at 450 cells into a 96-well tissue culture plate in DMEM medium supplemented with 10% FBS, 1% penicillin, and the following cytokines: mouse SCF (50 ng/mL), mouse IL-3 (10 ng/mL), human IL-6 (10 ng/mL), mouse IL-7 (5 ng/mL), and human Flt3 (5 ng/mL). Different concentrations of CXCL12 ranging from 1 to 1,000 ng/ml were added at the start of the culture. Cells were cultured at 37° C. in a humidified atmosphere containing 5% CO2, and were harvested after 4 days of culture to analyze HSPCs by flow cytometry.

LSK SLAM (HSCs) or MPPs = assay: In vitro differentiation assay of purified LSK SLAM or MPPs in cytokine-supplemented feeder-free media; assay type: cell-based, mouse

Source text for circulating HSPCs: One hour later, peripheral blood was harvested, analyzed by flow cytometry and tested for CFU-C assays.

Compound: c1cc(CN2CCCNCCNCCCNCC2)ccc1CN1CCCNCCNCCCNCC1 [AMD3100]
- absolute numbers of circulating HSPCs (circulating HSPCs; WT mice, single intra-peritoneal injection (5 mg/kg), one hour after injection, blood): significant increase
- absolute numbers of HSPCs in the blood (circulating HSPCs; mutant (Cxcr4 1013-bearing) mice, single intra-peritoneal injection, one hour, reaching that of untreated WT mice): increased

Compound: CXCL12: C-X-C motif chemokine 12, natural ligand of CXCR4, added to the culture medium
- myeloid-biased MPP2 proportions and numbers (MPPs): decrease
- myeloid-biased MPP3 proportions and numbers (MPPs): decrease
- proportions and absolute numbers of MPPs (MPPs): significant and dose-dependent increase
- proportions and absolute numbers of lymphoid-biased MPP4 (MPPs): significant and dose-dependent increase
- appearance of LMPPs (LSK SLAM (HSCs) or MPPs; 100 ng/mL added at start of culture of MPPs, regardless of Cxcr4 genotype, less pronounced among mutant cells): promoted the appearance of LMPPs
- proportions and numbers of Cxcr4 1013-bearing MPPs (LSK SLAM (HSCs) or MPPs; 100 ng/mL added at start of culture, mutant cells, days 2 and 4 (FIGS. 1 and 2)): further enhanced
